Values of other authors as cited in patent US9745567B2, “Compositions and methods for treating multiple sclerosis” (REVALESIO CORPORATION, priority 2008, dated 2017).
Counter-ions that a name gives are not always drawn. Like-named read-outs stand apart in the source and are kept apart here.

Columns and labels:
[1] = target: T1, MMP-2 (Homo sapiens, UniProt P08253)
T1 sequence (P08253 110-660): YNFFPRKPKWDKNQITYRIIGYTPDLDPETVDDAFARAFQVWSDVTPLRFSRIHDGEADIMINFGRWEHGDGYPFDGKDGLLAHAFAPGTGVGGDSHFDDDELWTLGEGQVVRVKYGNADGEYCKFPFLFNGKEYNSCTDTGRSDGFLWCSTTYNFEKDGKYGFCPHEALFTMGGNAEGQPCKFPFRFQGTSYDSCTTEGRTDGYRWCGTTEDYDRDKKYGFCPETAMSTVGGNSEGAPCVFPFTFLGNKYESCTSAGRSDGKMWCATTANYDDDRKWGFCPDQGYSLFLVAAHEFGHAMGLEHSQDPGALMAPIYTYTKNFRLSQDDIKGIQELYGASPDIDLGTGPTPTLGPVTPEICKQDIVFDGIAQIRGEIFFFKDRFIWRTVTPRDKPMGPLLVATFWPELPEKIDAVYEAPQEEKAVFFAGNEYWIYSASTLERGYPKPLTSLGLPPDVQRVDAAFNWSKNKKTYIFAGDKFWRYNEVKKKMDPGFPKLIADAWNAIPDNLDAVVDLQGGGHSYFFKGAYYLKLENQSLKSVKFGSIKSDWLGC

[2] = target: T2, MMP-3 (Homo sapiens, UniProt P08254); conditions: for Ki values, human MMP-3 catalytic domain: competitive inhibitor
Target sequence in this assay (P08254 100-477): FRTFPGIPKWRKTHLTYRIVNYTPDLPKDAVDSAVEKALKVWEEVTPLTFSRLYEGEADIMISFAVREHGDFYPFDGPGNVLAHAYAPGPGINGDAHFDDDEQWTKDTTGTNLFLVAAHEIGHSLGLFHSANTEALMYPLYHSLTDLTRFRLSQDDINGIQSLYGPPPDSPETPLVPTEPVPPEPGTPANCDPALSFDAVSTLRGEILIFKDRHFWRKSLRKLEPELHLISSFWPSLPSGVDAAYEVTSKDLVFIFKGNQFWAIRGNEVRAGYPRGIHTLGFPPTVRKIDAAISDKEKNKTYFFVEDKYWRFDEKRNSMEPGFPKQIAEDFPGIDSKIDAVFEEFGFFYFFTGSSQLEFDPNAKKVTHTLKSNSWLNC

[3] = target: T3, rabbit MMP-3 catalytic domains (Oryctolagus cuniculus, UniProt P28863); conditions: competitive inhibitor
T3 construct: rabbit MMP-3 catalytic domains
T3 sequence (P28863 101-273 limits assumed): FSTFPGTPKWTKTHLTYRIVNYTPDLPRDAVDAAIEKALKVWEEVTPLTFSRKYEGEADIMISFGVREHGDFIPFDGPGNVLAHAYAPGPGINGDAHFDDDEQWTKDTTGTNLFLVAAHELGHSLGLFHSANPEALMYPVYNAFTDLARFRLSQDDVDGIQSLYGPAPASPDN

[4] = target: MMP-9 (Homo sapiens, UniProt P14780)
Chain of MMP-9 (P14780 94-707, species assumed): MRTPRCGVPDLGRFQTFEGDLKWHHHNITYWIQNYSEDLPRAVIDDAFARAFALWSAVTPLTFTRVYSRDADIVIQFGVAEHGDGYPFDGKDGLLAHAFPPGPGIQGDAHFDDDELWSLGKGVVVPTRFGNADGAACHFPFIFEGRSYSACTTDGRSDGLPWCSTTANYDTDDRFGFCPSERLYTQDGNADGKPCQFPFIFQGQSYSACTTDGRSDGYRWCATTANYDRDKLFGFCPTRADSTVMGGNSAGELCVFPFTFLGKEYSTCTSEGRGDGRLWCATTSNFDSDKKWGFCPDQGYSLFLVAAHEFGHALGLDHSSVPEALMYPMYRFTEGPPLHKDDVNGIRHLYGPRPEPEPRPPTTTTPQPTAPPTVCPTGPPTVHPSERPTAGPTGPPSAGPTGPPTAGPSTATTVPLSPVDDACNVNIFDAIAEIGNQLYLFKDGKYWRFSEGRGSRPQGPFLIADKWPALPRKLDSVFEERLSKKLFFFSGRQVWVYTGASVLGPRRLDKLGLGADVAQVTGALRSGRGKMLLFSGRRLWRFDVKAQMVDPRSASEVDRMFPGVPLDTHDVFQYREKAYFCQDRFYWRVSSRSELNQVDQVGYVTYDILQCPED

[5] = target: T4, MMP-1 (Homo sapiens, UniProt P03956)
T4 sequence (P03956 100-469): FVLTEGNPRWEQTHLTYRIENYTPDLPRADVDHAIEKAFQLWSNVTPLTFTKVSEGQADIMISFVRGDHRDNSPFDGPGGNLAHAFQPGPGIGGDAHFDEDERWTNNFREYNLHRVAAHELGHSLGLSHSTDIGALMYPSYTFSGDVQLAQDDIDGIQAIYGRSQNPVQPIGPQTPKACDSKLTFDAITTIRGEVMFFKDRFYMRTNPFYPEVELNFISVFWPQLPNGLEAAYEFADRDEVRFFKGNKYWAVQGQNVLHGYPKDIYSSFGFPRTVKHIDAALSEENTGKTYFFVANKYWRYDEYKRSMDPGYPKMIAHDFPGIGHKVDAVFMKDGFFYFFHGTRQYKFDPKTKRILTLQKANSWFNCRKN

[6] = target: T2, MMP-3
Target sequence in this assay (P08254 100-477, species assumed): as the sequence (P08254 100-477) above

[7] = target: MMP-8 (Homo sapiens, UniProt P22894)
Chain of MMP-8 (P22894 101-467, species assumed): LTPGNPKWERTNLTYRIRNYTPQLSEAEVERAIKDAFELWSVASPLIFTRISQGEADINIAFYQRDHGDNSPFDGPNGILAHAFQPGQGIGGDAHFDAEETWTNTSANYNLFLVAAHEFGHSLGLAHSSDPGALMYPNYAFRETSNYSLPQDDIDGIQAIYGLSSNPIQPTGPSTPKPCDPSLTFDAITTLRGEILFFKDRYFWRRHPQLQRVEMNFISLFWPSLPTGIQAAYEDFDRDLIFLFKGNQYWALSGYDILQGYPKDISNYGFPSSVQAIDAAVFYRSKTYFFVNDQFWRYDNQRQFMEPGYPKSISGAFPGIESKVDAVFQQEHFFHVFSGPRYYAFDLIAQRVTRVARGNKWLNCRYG

[8] = target: murine macrophage metalloelastase (MME/MMP-12) (Mus musculus, UniProt P34960)
Chain of murine macrophage metalloelastase (MME/MMP-12) (P34960 110-473): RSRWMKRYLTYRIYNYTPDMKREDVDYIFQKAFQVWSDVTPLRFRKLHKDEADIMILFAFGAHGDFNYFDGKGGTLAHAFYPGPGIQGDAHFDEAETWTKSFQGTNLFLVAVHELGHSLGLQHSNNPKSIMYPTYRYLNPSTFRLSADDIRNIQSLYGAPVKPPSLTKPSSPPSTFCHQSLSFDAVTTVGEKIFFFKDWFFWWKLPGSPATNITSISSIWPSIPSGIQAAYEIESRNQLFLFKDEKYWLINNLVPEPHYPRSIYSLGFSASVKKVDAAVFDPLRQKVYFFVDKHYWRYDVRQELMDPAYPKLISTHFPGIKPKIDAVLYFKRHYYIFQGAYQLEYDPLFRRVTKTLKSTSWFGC

[9] = target: pseudolysin from P. aeruginosa (Pseudomonas aeruginosa, UniProt P14756)
Chain of pseudolysin from P. aeruginosa (P14756 198-498): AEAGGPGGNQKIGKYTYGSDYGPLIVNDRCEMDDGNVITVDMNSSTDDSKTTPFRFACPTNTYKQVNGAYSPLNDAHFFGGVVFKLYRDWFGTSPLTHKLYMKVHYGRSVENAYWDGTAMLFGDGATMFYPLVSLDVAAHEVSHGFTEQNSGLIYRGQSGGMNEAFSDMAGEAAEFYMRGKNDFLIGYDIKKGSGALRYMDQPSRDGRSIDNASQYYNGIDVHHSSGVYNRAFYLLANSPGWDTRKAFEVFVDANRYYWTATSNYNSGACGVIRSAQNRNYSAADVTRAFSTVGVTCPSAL

[10] = test system: multiple sclerosis; conditions: clinical study, 943 patients with primary progressive MS
[11] = target: T5, MMP-7 (Homo sapiens, UniProt P09237)
T5 sequence (P09237 95-267): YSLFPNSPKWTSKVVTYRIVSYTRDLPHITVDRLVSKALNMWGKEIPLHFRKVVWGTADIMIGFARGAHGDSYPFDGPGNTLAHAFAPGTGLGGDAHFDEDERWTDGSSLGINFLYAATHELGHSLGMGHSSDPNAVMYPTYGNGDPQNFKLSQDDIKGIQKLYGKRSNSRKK

[12] = target: MMP-13 (Homo sapiens, UniProt P45452)
[13] = target: TACE (Homo sapiens, UniProt P78536)
Chain of TACE (P78536 215-824): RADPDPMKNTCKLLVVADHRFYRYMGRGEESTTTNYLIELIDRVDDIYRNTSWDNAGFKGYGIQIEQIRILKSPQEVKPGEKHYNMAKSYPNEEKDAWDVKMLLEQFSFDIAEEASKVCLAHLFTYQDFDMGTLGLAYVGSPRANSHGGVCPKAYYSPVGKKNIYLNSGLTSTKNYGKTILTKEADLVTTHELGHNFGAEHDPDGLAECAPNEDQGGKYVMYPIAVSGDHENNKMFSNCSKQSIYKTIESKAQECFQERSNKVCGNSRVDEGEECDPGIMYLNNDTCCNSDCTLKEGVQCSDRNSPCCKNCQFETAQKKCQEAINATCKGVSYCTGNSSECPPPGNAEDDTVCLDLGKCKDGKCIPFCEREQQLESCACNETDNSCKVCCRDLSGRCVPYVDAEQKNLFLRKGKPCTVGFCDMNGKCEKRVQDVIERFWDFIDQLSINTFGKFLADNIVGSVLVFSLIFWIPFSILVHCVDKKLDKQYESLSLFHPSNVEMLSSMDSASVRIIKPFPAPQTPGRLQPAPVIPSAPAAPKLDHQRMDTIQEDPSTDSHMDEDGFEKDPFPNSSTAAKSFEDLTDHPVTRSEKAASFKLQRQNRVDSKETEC

COC(=O)[C@H](Cc1ccccc1)NC(=O)Nc1nnc(S)s1 [MMP-2/MMP-3 Inhibitor I]
Ki [1]: 17000 nM

O=C(O)CCC(=NO)c1ccc2oc3ccccc3c2c1 [MMP-3 Inhibitor V, 4-Dibenzofuran-2′-yl-4-hydroximino-butyric Acid]
Ki values, human MMP-3 catalytic domain [2]: the low μM range.
Ki values, rabbit MMP-3 catalytic domain [3]: the low μM range.

N=C(NCCCCCCNC(=N)NC(=N)Nc1ccc(Cl)cc1)NC(=N)Nc1ccc(Cl)cc1 [Chlorhexidine, Dihydrochloride]
inhibition of MMP-2 [1]: Acts as a Zn2+-chelating inhibitor of MMP-2 and MMP-9.
inhibition of MMP-9 [4]: Acts as a Zn2+-chelating inhibitor of MMP-2 and MMP-9.

CC(C)C[C@H](CC(=O)O)C(=O)N[C@@H](Cc1c[nH]c2ccccc12)C(=O)N[C@@H](C)c1ccccc1 [GM 1489]
Ki [5]: 0.2 nM
Ki [1]: 500 nM
Ki [6]: 20000 nM
Ki [7]: 100 nM
Ki [4]: 100 nM

COc1ccc(S(=O)(=O)N(Cc2ccccc2)C(CC(C)C)C(=O)NO)cc1 (centres unmarked) [MMP-3 Inhibitor VIII]
Ki [2]: 23 nM
IC50 [8]: 13 nM

O=C(O)CCC(=NO)c1ccc(-c2ccccc2)cc1 [MMP-3 Inhibitor VI, 4-(4′-Biphenyl)-4-hydroxyimino-butyric Acid]
Ki values, human MMP-3 catalytic domain [2]: the low μM range.
Ki values, rabbit MMP-3 catalytic domain [3]: the low μM range.

RCGVPD [MMP-3 Inhibitor I, Ac-Arg-Cys-Gly-Val-Pro-Asp-NH2]
IC50 [6]: 5000 nM

HONH—COCH2CH2CO-Phe-Ala-NH2 [MMP Inhibitor IV]
inhibition of pseudolysin from P. aeruginosa [9]: potently inhibits MMPs and

glatiramer acetate
progression of disability and disease [10]: failed to halt the progression of disability and the disease

4-Abz-Gly-Pro-D-Leu-D-Ala-NH—OH [MMP Inhibitor I (FN-439)]
IC50 [5]: 1000 nM
IC50 [6]: 150000 nM
IC50 [7]: 1000 nM
IC50 [4]: 30000 nM

CNC(=O)C(CCc1ccccc1)NC(=O)C(CC(=O)NO)CC(C)C (centres unmarked) [MMP Inhibitor III]
IC50 [5]: 7.4 nM
IC50 [1]: 2.3 nM
IC50 [6]: 135 nM
IC50 [11]: 10 to 100 nM
IC50 [12]: 1 to 10 nM

O=S(=O)(CCCC(S)CS)c1ccc(Oc2ccccc2)cc1 (centres unmarked) [compound 2, 5-(4-phenoxyphenylsulfonyl)pentane-1,2-dithiol]
inhibition of MMP-2 [1]: bind selectively and inhibit potently
inhibition of MMP-9 [4]: bind selectively and inhibit potently

H-Cys1-Thr-Thr-His-Trp-Gly-Phe-Thr-Leu-Cys10-OH (cyclic: 1 → 10) [MMP-2/MMP-9 Inhibitor III]
IC50 [1]: 10000 nM

O=S(=O)(CCC(S)CS)c1ccc(Oc2ccccc2)cc1 (centres unmarked) [compound 1, 4-(4-phenoxyphenylsulfonyl)butane-1,2-dithiol]
inhibition of MMP-2 [1]: bind selectively and inhibit potently
inhibition of MMP-9 [4]: bind selectively and inhibit potently

CCCCCCCC/C=C\CCCCCCCC(=O)NO [MMP-2 Inhibitor I (OA-Hy)]
Ki [1]: 1700 nM

CC(NC(=O)C(Cc1ccccc1)NC(=O)CCC(=O)NO)C(N)=O (centres unmarked) [MMP-2/MMP-9 Inhibitor IV, HONH—COCH2CH2CO-FA-NH2]
Ki [1]: 13.9 nM
Ki [4]: 600 nM

O=C(NCCCCN1CCOCC1)c1cc2ccccc2o1 [CL-82198]
inhibition of MMP-1 [5]: Does not inhibit
inhibition of MMP-9 [4]: Does not inhibit
IC50 [12]: 10000 nM
inhibition of TACE [13]: Does not inhibit
